According to US7560117B2, “Foamy virus mutant reverse transcriptase” (priority 2001, dated 2009):

Key:
[1] = target: HIV-1 RT (Human immunodeficiency virus type 1 group M subtype B, UniProt P03366); assay: 3TCTP inhibition assay, M13 template, radiolabeled dCTP incorporation; conditions: 1.0 μM 3TCTP; activity without drug set at 100%
Description: The 3TCTP inhibition assays were performed using the M13 template and the −47 primer. The −47 sequencing primer was annealed to the single stranded M13mp18 DNA by heating to 95° C. and slowly cooling to room temperature. The template-primer was extended by adding 1.0 μg of RT in 25 mM Tris(pH 8.0), 75 mM KCl, 8.0 mM MgCl2, 100 μg/ml BSA, 10 mM CHAPS, 10 μM each of dATP, dGTP, and dTTP, 2.0 μM [α-^32P]dCTP, and the indicated concentrations of 3TCTP (Moravek Biochemicals, Brea, Calif.) in a 100 μl reaction volume. The mixture was incubated at 37° C. for 30 min, then halted by the addition of 3 ml of ice-cold trichloroacetic acid (TCA) and the precipitated DNA was collected by suction filtration through Whatman GF/C glass filters. The amount of incorporated radioactivity was determined by liquid scintillation counting.
Samples were TCA precipitated, bound to glass filters, and incorporation of radiolabeled dCTP was measured. […] These levels of RT activity in the absence of drug were set at 100% activity for each recombinant RT.

[2] = tested on: PFV; conditions: previous studies; cited from earlier work
[3] = tested on: PFV; conditions: virus producing cells treated with inhibitor
[4] = tested on: PFV; type: cell-based, Prototype Foamy Virus (SFVcpz(hu))

SMILES | specific inhibition of production of infectious PFV particles [2] | also measured
Nc1ccn([C@@H]2CS[C@H](COP(=O)(O)OP(=O)(O)OP(=O)(O)O)O2)c(=O)n1 [3TCTP] |  | activity retained by HIV-1 RT [1]: 37%
Nc1ccn([C@@H]2CS[C@H](CO)O2)c(=O)n1 [3TC] | not | 
Cc1cn([C@H]2C[C@H](N=[N+]=[N-])[C@@H](CO)O2)c(=O)[nH]c1=O [AZT] | specific inhibition was demonstrated | specific decrease in infectivity [3]: greater than 10 fold
Nc1nc(=O)n(C2CSC(CO)O2)cc1F (stereo not drawn) [FTC, beta-2′,3′-dideoxy-5-fluoro-3′-thiacytidine] |  | Titer Relative to No-Drug Control, Pretreated [4]: 122
O=c1[nH]cnc2c1ncn2[C@H]1CC[C@@H](CO)O1 [ddI] | not | 
